Here are results for 23 molecules from patent US11702404B2, “GLP-1R modulating compounds” (priority 2019, dated 2023).

One data set concerns the target GLP-1R (Homo sapiens, UniProt P43220). Put plainly: GLP-1R activation: cAMP increase in CHO cells stably expressing GLP-1R. It is filed as cell-based.
Data set [1] is described as follows: Microsomal stability, human liver microsomes (predicted hepatic clearance). The note with it: predicted from in vitro microsomal stability data.
The mark [2] stands for this setting: cAMP increase, CHO cells stably expressing GLP-1R, 10 point dose response, 30 minutes incubation, read-out: EC50.

Read-outs that look alike come from different tables or passages of the source.

GLP-1R, sequence (P43220 24-463): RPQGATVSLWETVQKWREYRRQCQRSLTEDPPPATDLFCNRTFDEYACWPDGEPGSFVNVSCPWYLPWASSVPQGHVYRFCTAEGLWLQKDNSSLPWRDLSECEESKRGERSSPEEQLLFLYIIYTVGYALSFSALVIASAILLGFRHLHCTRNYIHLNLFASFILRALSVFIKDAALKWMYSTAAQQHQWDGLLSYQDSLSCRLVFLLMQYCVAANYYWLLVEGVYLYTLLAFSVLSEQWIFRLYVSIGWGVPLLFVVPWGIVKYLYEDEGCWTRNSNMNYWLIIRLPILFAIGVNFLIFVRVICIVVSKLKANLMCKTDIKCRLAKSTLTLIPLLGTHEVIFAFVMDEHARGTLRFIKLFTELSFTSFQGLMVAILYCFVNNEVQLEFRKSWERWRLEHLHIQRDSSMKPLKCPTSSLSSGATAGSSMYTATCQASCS

For `COCCn1c(Cc2ccc(-c3cccc(OCC(=O)c4ccccc4)n3)cc2F)nc2ccc(C(=O)O)cc21` [Example 214, 2-(2-fluoro-4-(6-(2-oxo-2-phenylethoxy)pyridin-2-yl)benzyl)-1-(2-methoxyethyl)-1H-benzo[d]imidazole-6-carboxylic acid], the EC50 at GLP-1R (setting [2]) came to 745 nM. In addition, in data set [1], the “Predicted Hepatic Clearance (Pred. Cl.)” value is 16.3 mL/min/kg.
In the case of `COCCn1c(Cc2ccc(-c3cccc(OCc4ccc(C#N)nc4)n3)cc2F)nc2ccc(C(=O)O)cc21` [Example 216, 2-(4-(6-((6-cyanopyridin-3-yl)methoxy)pyridin-2-yl)-2-fluorobenzyl)-1-(2-methoxyethyl)-1H-benzo[d]imidazole-6-carboxylic acid], at GLP-1R (setting [2]), the EC50 was determined as 110 nM. Further, the “Predicted Hepatic Clearance (Pred. Cl.)” value in data set [1] is less than 1.83 mL/min/kg.
Molecule `COCCn1c(Cc2cc(F)c(-c3ccc(F)c(OCc4ccc(C#N)cc4F)n3)cc2F)nc2ccc(C(=O)O)cc21` [Example 217, 2-(4-(6-((4-cyano-2-fluorobenzyl)oxy)-5-fluoropyridin-2-yl)-2,5-difluorobenzyl)-1-(2-methoxyethyl)-1H-benzo[d]imidazole-carboxylic acid] registered an EC50 at GLP-1R (EC50 (nM)) of 1.72 nM. The “Predicted Hepatic Clearance (Pred. Cl.)” value in data set [1] was 2.75 mL/min/kg.
Regarding `COCCn1c(Cc2cc(F)c(-c3cccc(OCc4ccc(C#N)cc4F)n3)cc2F)nc2cc(F)c(C(=O)O)cc21` [Example 218, 2-(4-(6-((4-cyano-2-fluorobenzyl)oxy)pyridin-2-yl)-2,5-difluorobenzyl)-5-fluoro-1-(2-methoxyethyl)-1H-benzo[d]imidazole-6-carboxylic acid], the EC50 at GLP-1R (setting [2]) worked out at 19.1 nM. The “Predicted Hepatic Clearance (Pred. Cl.)” value in data set [1] is 7.83 mL/min/kg.
Consider `N#Cc1ccc(COc2cccc(-c3cc(F)c(Cc4nc5cc(F)c(C(=O)O)cc5n4C[C@@H]4CCO4)cc3F)n2)c(F)c1` [Example 219, (S)-2-(4-(6-((4-cyano-2-fluorobenzyl)oxy)pyridin-2-yl)-2,5-difluorobenzyl)-5-fluoro-1-(oxetan-2-ylmethyl)-1H-benzo[d]imidazole-6-carboxylic acid], for which, on GLP-1R (setting [2]), the EC50 was 0.69 nM. The “Predicted Hepatic Clearance (Pred. Cl.)” value in data set [1] was 2.83 mL/min/kg.
As for `C[C@@H](C1CC1)n1c(Cc2ccc(-c3cccc(OCc4ccc(C#N)cc4F)n3)cc2F)nc2ccc(C(=O)O)cc21` [Example 220, (S)-2-(4-(6-((4-cyano-2-fluorobenzyl)oxy)pyridin-2-yl)-2-fluorobenzyl)-1-(1-cyclopropylethyl)-1H-benzo[d]imidazole-6-carboxylic acid], the EC50 on GLP-1R (setting [2]) came to 37.8 nM. Besides, the “Predicted Hepatic Clearance (Pred. Cl.)” value in data set [1] is 6.5 mL/min/kg.
Taken in the same sequence, the figures for `N#Cc1ccc(COc2cccc(-c3ccc(Cc4nc5cc(F)c(C(=O)O)cc5n4CC4(CF)CC4)c(F)c3)n2)c(F)c1` [Example 221, 2-(4-(6-((4-cyano-2-fluorobenzyl)oxy)pyridin-2-yl)-2-fluorobenzyl)-5-fluoro-1-((1-(fluoromethyl)cyclopropyl)methyl)-1H-benzo[d]imidazole-6-carboxylic acid] were 5.28 nM and 3.5 mL/min/kg.
As to `C[C@H](C1CC1)n1c(Cc2ccc(-c3cccc(OCc4ccc(C#N)cc4F)n3)cc2F)nc2ccc(C(=O)O)cc21` [Example 222, (R)-2-(4-(6-((4-cyano-2-fluorobenzyl)oxy)pyridin-2-yl)-2-fluorobenzyl)-1-(1-cyclopropylethyl)-1H-benzo[d]imidazole-6-carboxylic acid], the EC50 at GLP-1R (setting [2]) was 6.79 nM. In addition, in data set [1], the “Predicted Hepatic Clearance (Pred. Cl.)” value is 5 mL/min/kg.
As for `N#Cc1ccc(COc2cccc(-c3ccc(Cc4nc5ccc(C(=O)O)cc5n4C4CCC4)c(F)c3)n2)c(F)c1` [Example 223, 2-(4-(6-((4-cyano-2-fluorobenzyl)oxy)pyridin-2-yl)-2-fluorobenzyl)-1-cyclobutyl-1H-benzo[d]imidazole-6-carboxylic acid], at GLP-1R (setting [2]), the EC50 stood at 16.4 nM. In data set [1], the “Predicted Hepatic Clearance (Pred. Cl.)” value was 3.5 mL/min/kg.
Taken in the same sequence, the figures for `N#Cc1ccc(COc2cccc(-c3ccc(Cc4nc5cccc(C(=O)O)c5n4CC4(CF)CC4)c(F)c3)n2)c(F)c1` [Example 224, 2-(4-(6-((4-cyano-2-fluorobenzyl)oxy)pyridin-2-yl)-2-fluorobenzyl)-1-((1-(fluoromethyl)cyclopropyl)methyl)-1H-benzo[d]imidazole-7-carboxylic acid] were 23.6 nM and 7.5 mL/min/kg.
Taken in the same sequence, the figures for `N#Cc1ccc(COc2cccc(-c3ccc(Cc4nc5ccc(C(=O)O)cc5n4[C@@H]4CCOC4)c(F)c3)n2)c(F)c1` [Example 225, (R)-2-(4-(6-((4-cyano-2-fluorobenzyl)oxy)pyridin-2-yl)-2-fluorobenzyl)-1-(tetrahydrofuran-3-yl)-1H-benzo[d]imidazole-6-carboxylic acid] were 13.1 nM and 3.5 mL/min/kg.
As for `Cn1nnc(Cn2c(Cc3ccc(-c4cccc(OCc5ccc(C#N)cc5F)n4)cc3F)nc3ccc(C(=O)O)cc32)n1` [Example 226, 2-(4-(6-((4-cyano-2-fluorobenzyl)oxy)pyridin-2-yl)-2-fluorobenzyl)-1-((2-methyl-2H-tetrazol-5-yl)methyl)-1H-benzo[d]imidazole-6-carboxylic acid], the EC50 at GLP-1R (setting [2]) amounted to 139 nM. In addition, the “Predicted Hepatic Clearance (Pred. Cl.)” value in data set [1] was 3.67 mL/min/kg.
Turning to `COCCn1c(Cc2ccc(-c3cccc(OCc4ccc(C#N)cc4F)n3)cc2C#CC2CC(F)(F)C2)nc2ccc(C(=O)O)cc21` [Example 228, 2-(4-(6-((4-cyano-2-fluorobenzyl)oxy)pyridin-2-yl)-2-((3,3-difluorocyclobutyl)ethynyl)benzyl)-1-(2-methoxyethyl)-1H-benzo[d]imidazole-6-carboxylic acid], the EC50 on GLP-1R (setting [2]) came to 4.87 nM. Further, the “Predicted Hepatic Clearance (Pred. Cl.)” value in data set [1] was 4.83 mL/min/kg.
`COCCn1c(Cc2ccc(-c3cccc(OCc4ccc(CC#N)cc4)n3)cc2F)nc2ccc(C(=O)O)cc21` [Example 229, 2-(4-(6-((4-(cyanomethyl)benzyl)oxy)pyridin-2-yl)-2-fluorobenzyl)-1-(2-methoxyethyl)-1H-benzo[d]imidazole-6-carboxylic acid]: the EC50 at GLP-1R (setting [2]) amounted to 35.4 nM. Further, the “Predicted Hepatic Clearance (Pred. Cl.)” value in data set [1] was 8.67 mL/min/kg.
With `COCCOCCn1c(Cc2ccc(-c3cccc(OCc4ccc(C#N)cc4F)n3)cc2F)nc2ccc(C(=O)O)cc21` [Example 230, 2-(4-(6-((4-cyano-2-fluorobenzyl)oxy)pyridin-2-yl)-2-fluorobenzyl)-1-(2-(2-methoxyethoxy)ethyl)-1H-benzo[d]imidazole-6-carboxylic acid], at GLP-1R (setting [2]), the EC50 amounted to 27.4 nM. Further, the “Predicted Hepatic Clearance (Pred. Cl.)” value in data set [1] is 12 mL/min/kg.
Taken in the same sequence, the figures for `N#Cc1ccc(COc2cccc(-c3ccc(Cc4nc5ccc(C(=O)O)cc5n4CC45CCC(CC4)O5)c(F)c3)n2)c(F)c1` [Example 231, 1-(7-oxabicyclo[2.2.1]heptan-1-ylmethyl)-2-(4-(6-((4-cyano-2-fluorobenzyl)oxy)pyridin-2-yl)-2-fluorobenzyl)-1H-benzo[d]imidazole-6-carboxylic acid] were 35.4 nM and 8.17 mL/min/kg.
On to `COCCn1c(Cc2ccc(-c3cccc(OCc4ccc(C#N)cc4F)n3)cc2C#CC2(C)COC2)nc2ccc(C(=O)O)cc21` [Example 232, 2-(4-(6-((4-cyano-2-fluorobenzyl)oxy)pyridin-2-yl)-2-((3-methyloxetan-3-yl)ethynyl)benzyl)-1-(2-methoxyethyl)-1H-benzo[d]imidazole-6-carboxylic acid], for which, at GLP-1R (setting [2]), the EC50 amounted to 17.8 nM. For the same molecule, the “Predicted Hepatic Clearance (Pred. Cl.)” value in data set [1] was 18.7 mL/min/kg.
The matching figures for `COc1cc(Cl)ccc1COc1nccc(-c2ccc(Cc3nc4ccc(C(=O)O)nc4n3CC3(CF)CC3)cc2F)n1` [Example 233, 2-(4-(2-((4-chloro-2-methoxybenzyl)oxy)pyrimidin-4-yl)-3-fluorobenzyl)-3-((1-(fluoromethyl)cyclopropyl)methyl)-3H-imidazo[4,5-b]pyridine-5-carboxylic acid]: 1.35 nM and 10.3 mL/min/kg.
Turning to `COCCn1c(Cc2ccc(-c3cccc(OCc4ccc(C#N)cc4OC(F)F)n3)cc2F)nc2ccc(C(=O)O)cc21` [Example 234, 2-(4-(6-((4-cyano-2-(difluoromethoxy)benzyl)oxy)pyridin-2-yl)-2-fluorobenzyl)-1-(2-methoxyethyl)-1H-benzo[d]imidazole-6-carboxylic acid], the EC50 at GLP-1R (setting [2]) was 6.95 nM. For the same molecule, the “Predicted Hepatic Clearance (Pred. Cl.)” value in data set [1] is less than 1.83 mL/min/kg.
The matching figures for `COCCn1c(Cc2ccc(-c3cccc(OCc4csc(C#N)c4)n3)cc2F)nc2ccc(C(=O)O)cc21` [Example 235, 2-(4-(6-((5-cyanothiophen-3-yl)methoxy)pyridin-2-yl)-2-fluorobenzyl)-1-(2-methoxyethyl)-1H-benzo[d]imidazole-6-carboxylic acid]: 317 nM and 8.42 mL/min/kg.
Regarding `COCCn1c(Cc2ccc(-c3cccc(OCc4ccc(C#N)cc4OCC(F)(F)F)n3)cc2F)nc2ccc(C(=O)O)cc21` [Example 236, 2-(4-(6-((4-cyano-2-(2,2,2-trifluoroethoxy)benzyl)oxy)pyridin-2-yl)-2-fluorobenzyl)-1-(2-methoxyethyl)-1H-benzo[d]imidazole-6-carboxylic acid], the EC50 on GLP-1R (setting [2]) worked out at 306 nM. Moreover, in data set [1], the “Predicted Hepatic Clearance (Pred. Cl.)” value is less than 1.83 mL/min/kg.
The matching figures for `COCCn1c(Cc2ccc(-c3cccc(OCc4ccc(C#N)cc4F)n3)cc2C#Cc2ccccc2)nc2ccc(C(=O)O)cc21` [Example 237, 2-(4-(6-((4-cyano-2-fluorobenzyl)oxy)pyridin-2-yl)-2-(phenylethynyl)benzyl)-1-(2-methoxyethyl)-1H-benzo[d]imidazole-6-carboxylic acid]: 19.2 nM and 11.2 mL/min/kg.
The matching figures for `CCOc1cc(C#N)ccc1COc1cccc(-c2ccc(Cc3nc4ccc(C(=O)O)cc4n3CCOC)c(F)c2)n1` [Example 238, 2-(4-(6-((4-cyano-2-ethoxybenzyl)oxy)pyridin-2-yl)-2-fluorobenzyl)-1-(2-methoxyethyl)-1H-benzo[d]imidazole-6-carboxylic acid]: 12 nM and 8.67 mL/min/kg.

By EC50 is commonly meant the midpoint of the concentration-response curve.
